This note sets out measurements from PMC7901654, “Bioisosteric Discovery of NPA101.3, a Second-Generation RET/VEGFR2 Inhibitor Optimized for Single-Agent Polypharmacology” (Journal of Medicinal Chemistry, 2020).

Test [1] relates to cells negative for RET oncogenes. In words: Growth inhibition, cells negative for RET oncogenes (summary). The test is classed as cell-based. To be noted: doses of ≤100 nM. Here is the method: Finally, NPA101.3 featured efficacy already at 1 mg/kg/day in RET-driven tumors in nude mice. […] Therefore, though in a therapeutic setting toxicity may be increased by hitting multiple targets, it is feasible that the activity of the NPA101.3 against RET-driven tumors may take advantage of a synergistic combination of cell autonomous (on tumor cell growth mediated by RET inhibition) and non-cell autonomous (on blood vessel formation mediated by VEGFR2 inhibition) effects, potentiating its effect and reducing the chances of resistance development. Several TKIs with anti-RET activity are available, and some are already registered for the treatment of different types of thyroid cancers. […]
Nthy-ory-3-1 (10000 per well), TPC-1 (10000 per well), MZ-CRC-1 (100000 per well), TT (200000 per well), Lc-2/ad (100000 per well), BCPAP (10000 per well), 8505-C (10000 per well), PC-9 (10000 per well), A549 (10000 per well), CALU-1 (10000 per well), NIH3T3 RET/C634Y (10000 per well), and NIH3T3 HRAS/G12V (10000 per well) were seeded in six-well tissue culture plates. […] Cells were counted every day (Ba/F3), every 2 days (fibroblasts), or every 2–3 days (human cell lines). […] IC50 doses were calculated through a curve fitting analysis from last day of growth curves using the PRISM software program (Graphpad Software Inc.).

Test [2] concerns the target T1, RET/C634R (Homo sapiens, UniProt P07949, C634R).
T1 construct: expressed in transfected cells; host or cells: RAT1 fibroblasts (gift of M. Billaud)
In words: RET autophosphorylation (Y905, Y1062) Western blot in transfected fibroblasts (RAT1). The test is classed as cell-based. Particulars: 2 h. The protocol: Fibroblasts transfected with RET/C634R were treated with increasing doses of NPA101.3, ranging from 0.1 to 10.0 nM. RET autophosphorylation was assessed by Western blotting using two different antibodies that can recognize phosphorylated Y905, located in the RET kinase activation loop, or Y1062, a multidocking site involved in RET downstream signaling.[41]
Figure 4 NPA101.3-mediated inhibition of phosphorylation and signaling of oncogenic RET mutants and VEGFR2 in intact cells. Serum-starved RAT1 cells exogenously expressing the (A and B) indicated RET point mutants or (C) NIH3T3 cells exogenously expressing the indicated RET rearranged mutants were treated for 2 h with the indicated concentrations of the compound. Total cell lysates (50 μg) were subjected to immunoblotting with anti-phospho-Y1062 (αp1062) and anti-phospho-Y905 (αp905) RET antibodies. The blots were normalized using the anti-RET (αRET) antibody. (D) HEK293 cells were transiently transfected with human VEGFR2; 36 h after transfection, cells were serum starved for 12 h. The indicated doses of the compound or vehicle (NT) were added for 2 h, and then VEGFA (100 ng/mL) stimulation was applied for 15 min. […]
Protein lysates were prepared according to standard procedures. […] Immune complexes were detected with the enhanced chemiluminescence kit (Amersham Pharmacia Biotech, Little Chalfont, U.K.). […]
In general terms: A western blot detects proteins with antibodies after separation by electrophoresis.

Molecules are shown by their SMILES.

T1 sequence (P07949 29-1072 isoform P07949-2 C634R limits assumed): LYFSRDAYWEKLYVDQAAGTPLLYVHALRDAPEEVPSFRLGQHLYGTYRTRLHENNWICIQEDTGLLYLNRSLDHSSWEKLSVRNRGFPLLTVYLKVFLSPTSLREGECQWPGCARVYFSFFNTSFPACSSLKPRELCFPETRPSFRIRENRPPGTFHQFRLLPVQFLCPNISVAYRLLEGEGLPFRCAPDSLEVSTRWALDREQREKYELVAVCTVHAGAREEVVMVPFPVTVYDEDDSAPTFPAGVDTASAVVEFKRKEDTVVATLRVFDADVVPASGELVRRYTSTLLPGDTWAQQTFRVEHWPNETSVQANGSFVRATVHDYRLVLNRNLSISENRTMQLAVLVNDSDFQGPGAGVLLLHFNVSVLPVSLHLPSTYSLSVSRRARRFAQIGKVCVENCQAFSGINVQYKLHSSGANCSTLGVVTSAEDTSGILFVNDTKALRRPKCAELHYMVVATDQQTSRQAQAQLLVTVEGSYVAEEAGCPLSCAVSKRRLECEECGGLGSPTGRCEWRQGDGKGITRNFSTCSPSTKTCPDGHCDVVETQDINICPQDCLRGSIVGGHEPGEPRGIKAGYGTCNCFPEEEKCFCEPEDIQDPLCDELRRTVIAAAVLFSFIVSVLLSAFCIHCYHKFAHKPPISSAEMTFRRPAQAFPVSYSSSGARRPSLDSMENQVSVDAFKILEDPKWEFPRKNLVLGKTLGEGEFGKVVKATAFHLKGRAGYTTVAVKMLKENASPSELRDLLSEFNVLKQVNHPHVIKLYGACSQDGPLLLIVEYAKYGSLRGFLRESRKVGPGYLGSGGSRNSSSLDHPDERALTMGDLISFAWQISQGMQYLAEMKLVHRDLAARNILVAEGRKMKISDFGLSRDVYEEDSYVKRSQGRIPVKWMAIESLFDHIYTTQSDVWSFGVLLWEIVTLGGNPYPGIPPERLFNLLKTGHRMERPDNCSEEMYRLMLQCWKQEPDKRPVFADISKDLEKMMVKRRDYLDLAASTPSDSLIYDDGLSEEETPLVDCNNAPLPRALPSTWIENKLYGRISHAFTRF

For `CC(C)(C)c1cc(NC(=O)Cc2ccc(-n3cnc4cc(-c5ccc(S(C)(=O)=O)cc5)ccc43)cc2)no1` [NPA101.3], the “growth effect in cells negative for RET oncogenes” value in test [1] is given as “no detectable effect”. Also, the “RET phosphorylation (Y905, Y1062)” value is reported as “started to be inhibited” in test [2] (0.3 nM) and “almost completely blocked” in test [2] (3.0 nM).
